Experiments:
100 protein kinases = assay: kinase competition-binding assay; details: 30 μM
[1] = intracellular compound quantification in macrophage lysates; assay type: in vitro ADME, human
[2] = tested on: panel of demethylases of the JMJ family; assay: JMJ selectivity panel; details: other than JMJD3 and UTX
[3] = tested on: panel of 60 unrelated proteins, including histone deacetylases; assay: off-target panel
[4] = biological target: Flag-tagged UTX from transiently transfected HEK-293 cells (Homo sapiens, UniProt O15550); assay: chemoproteomics affinity capture with immobilized GSK-J3, western blotting; assay type: binding; details: 100 μM free compound, HEK-293 lysate
[5] = TNF-α production by LPS-activated macrophages; assay type: cell-based, human
[6] = cytokine expression by PCR array in LPS-activated macrophages; assay type: cell-based, human; details: 30 μM, LPS 2 h, n = 4 donors
[7] = tested on: macrophages derived from patients with rheumatoid arthritis; assay: TNF-α production by macrophages derived from patients with rheumatoid arthritis; assay type: cell-based, human
[8] = ChIP analysis at the TNFA locus in LPS-stimulated macrophages; assay type: cell-based, human
[9] = tested on: Flag-JMJD3-transfected HeLa cells; assay: nuclear H3K27me3 immunostaining; assay type: cell-based

Flag-tagged UTX from transiently transfected HEK-293 cells, sequence (O15550 whole entry): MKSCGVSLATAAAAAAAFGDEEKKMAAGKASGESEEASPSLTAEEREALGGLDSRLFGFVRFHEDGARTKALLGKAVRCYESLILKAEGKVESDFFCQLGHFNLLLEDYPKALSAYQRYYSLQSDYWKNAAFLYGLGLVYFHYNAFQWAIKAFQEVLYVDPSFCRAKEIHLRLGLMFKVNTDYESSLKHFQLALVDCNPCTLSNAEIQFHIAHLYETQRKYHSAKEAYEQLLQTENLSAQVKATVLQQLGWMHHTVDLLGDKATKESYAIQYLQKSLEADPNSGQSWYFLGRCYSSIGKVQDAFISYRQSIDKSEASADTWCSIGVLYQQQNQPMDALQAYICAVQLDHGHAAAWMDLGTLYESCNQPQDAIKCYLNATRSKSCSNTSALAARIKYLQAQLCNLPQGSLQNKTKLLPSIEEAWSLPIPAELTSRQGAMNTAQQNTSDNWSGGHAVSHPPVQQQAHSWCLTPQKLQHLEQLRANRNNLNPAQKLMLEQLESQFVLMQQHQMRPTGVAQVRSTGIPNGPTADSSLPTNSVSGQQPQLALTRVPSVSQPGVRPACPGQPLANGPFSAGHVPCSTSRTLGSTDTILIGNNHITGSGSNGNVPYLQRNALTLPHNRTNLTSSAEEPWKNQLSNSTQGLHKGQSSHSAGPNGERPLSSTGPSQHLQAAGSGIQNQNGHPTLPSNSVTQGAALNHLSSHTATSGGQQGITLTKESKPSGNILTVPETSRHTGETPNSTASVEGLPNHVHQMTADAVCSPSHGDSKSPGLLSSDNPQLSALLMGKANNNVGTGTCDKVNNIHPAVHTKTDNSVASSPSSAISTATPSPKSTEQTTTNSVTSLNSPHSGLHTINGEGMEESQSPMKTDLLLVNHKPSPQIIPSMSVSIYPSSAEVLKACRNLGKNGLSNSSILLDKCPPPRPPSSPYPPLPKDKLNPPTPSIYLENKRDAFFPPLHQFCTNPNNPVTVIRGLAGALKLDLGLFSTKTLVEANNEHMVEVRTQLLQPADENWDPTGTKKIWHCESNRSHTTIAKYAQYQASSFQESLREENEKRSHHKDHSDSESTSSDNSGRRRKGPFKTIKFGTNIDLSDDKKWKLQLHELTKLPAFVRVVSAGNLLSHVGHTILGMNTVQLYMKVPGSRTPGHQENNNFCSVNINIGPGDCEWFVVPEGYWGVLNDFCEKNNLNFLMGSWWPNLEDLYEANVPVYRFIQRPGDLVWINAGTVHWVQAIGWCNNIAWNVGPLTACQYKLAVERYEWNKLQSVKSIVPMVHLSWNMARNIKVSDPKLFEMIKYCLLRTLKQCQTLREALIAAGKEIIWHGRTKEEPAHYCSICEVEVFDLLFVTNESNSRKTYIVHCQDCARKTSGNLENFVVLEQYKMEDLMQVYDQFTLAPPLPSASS

## O=C(O)CCNc1cc(N2CCc3ccccc3CC2)nc(-c2ccccn2)n1 [GSK-J1]
100 protein kinases
  inhibition of 100 protein kinases: did not significantly inhibit
[1]
  cellular permeability: restricts cellular permeability
[2]
  activity against a panel of demethylases of the JMJ family: inactive
[3]
  off-target activity against a panel of 60 unrelated proteins: negligible off-target activity
[4]
  competition of capture of Flag-tagged UTX by immobilized GSK-J3: competitively inhibited

## CCOC(=O)CCNc1cc(N2CCc3ccccc3CC2)nc(-c2ccccn2)n1 [GSK-J4]
[1]
  hydrolysis by macrophage esterases: rapidly hydrolysed
[5]
  levels of LPS-induced JMJD3 or of LPS-independent UTX and EZH2: neither GSK-J4 nor GSK-J5 directly affected
[5]; 30 μM, LPS 1 h
  TNF-α production after siRNA knockdown of either JMJD3 or UTX alone: still able to inhibit TNF-α production
[5]; conditions of the TNF-α assay
  cellular toxicity: No interference from cellular toxicity was observed
[5]; read-out: IC50 for TNF-α blockade, LPS, 6 h, n = 5 donors
  IC50: 9 µM
[6]
  LPS-driven cytokines with significantly reduced expression (PCR array): 16 of 34
[7]
  production of TNF-α by macrophages from patients with rheumatoid arthritis: blocked the production of TNF-α
[8]
  H3K27 methylation upstream of the TNFA TSS: Neither GSK-J4 nor GSK-J5 had an effect
[8]; 30 μM, LPS 1 h, n = 8 donors
  LPS-induced loss of H3K27me3 associated with the TNFA TSS (ChIP): prevented the LPS-induced loss of H3K27me3
  recruitment of RNA polymerase II to the TNFA TSS (ChIP): blocked the recruitment of RNA polymerase II
[9]; 25 μM
  nuclear H3K27me3 staining in Flag-JMJD3-transfected HeLa cells: preserved nuclear H3K27me3 staining
[9]; untransfected cells
  total nuclear H3K27me3 levels in untransfected cells: increased total nuclear H3K27me3 levels

## CCOC(=O)CCNc1cc(N2CCc3ccccc3CC2)nc(-c2cccnc2)n1 [GSK-J5]
[1]
  hydrolysis by macrophage esterases: rapidly hydrolysed
[5]
  levels of LPS-induced JMJD3 or of LPS-independent UTX and EZH2: neither GSK-J4 nor GSK-J5 directly affected
[5]; LPS, 6 h
  effect on TNF-α protein production: no effect
[8]
  H3K27 methylation upstream of the TNFA TSS: Neither GSK-J4 nor GSK-J5 had an effect

Source: publication PMC4691848 (Nature, 2012)
